Experimental data from patent US20230416225A1, “DIAMINOPYRIMIDINE CARBOXAMIDE INHIBITORS OF HPK1” (MERCK SHARP & DOHME LLC, priority 2020, published 2023).

molecular target: T1, Human HPK1, catalytic domain (Homo sapiens, UniProt Q92918); assay: HPK1-SLP76 TR-FRET assay; assay type: biochemical; details: 75 pM HPK1, 10 uM ATP, 10 nM SLP76, 30 min compound pre-incubation
T1 construct: purchased Carna
T1 sequence (Q92918 1-346): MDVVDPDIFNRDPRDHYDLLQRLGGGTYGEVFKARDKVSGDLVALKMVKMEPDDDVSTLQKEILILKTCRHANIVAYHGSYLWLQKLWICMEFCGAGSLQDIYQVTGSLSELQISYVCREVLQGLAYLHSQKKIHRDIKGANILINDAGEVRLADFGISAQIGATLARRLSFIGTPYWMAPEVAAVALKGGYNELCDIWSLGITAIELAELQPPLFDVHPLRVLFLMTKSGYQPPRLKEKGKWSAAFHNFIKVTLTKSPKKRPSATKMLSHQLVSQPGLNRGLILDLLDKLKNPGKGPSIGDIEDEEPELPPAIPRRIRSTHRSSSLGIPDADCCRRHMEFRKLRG

SMILES	IC50
COc1cc2c(cc1Nc1ncc(C(N)=O)c(Nc3ccc(F)cc3)n1)CN(C)CC2 [Example 7-21, 4-[(4-fluorophenyl)amino]-2-[(6-methoxy-2-methyl-1,2,3,4-tetrahydroisoquinolin-7-yl)amino]pyrimidine-5-carboxamide]	0.51 nM
COc1cc2c(cc1Nc1ncc(C(N)=O)c(Nc3cccc(C)c3)n1)CN(C)CC2 [Example 7-22, 2-[(6-methoxy-2-methyl-1,2,3,4-tetrahydroisoquinolin-7-yl)amino]-4-[(3-methylphenyl)amino]pyrimidine-5-carboxamide]	0.81 nM
CCC(C)c1ccccc1Nc1nc(Nc2cc3c(cc2OC)CCN(C)C3)ncc1C(N)=O (stereo not shown) [Example 7-23, 4-{[2-(butan-2-yl)phenyl]amino}-2-[(6-methoxy-2-methyl-1,2,3,4-tetrahydroisoquinolin-7-yl)amino]pyrimidine-5-carboxamide]	0.17 nM
COc1cc2c(cc1Nc1ncc(C(N)=O)c(Nc3ccc(C)cc3)n1)CN(C)CC2 [Example 7-24, 2-[(6-methoxy-2-methyl-1,2,3,4-tetrahydroisoquinolin-7-yl)amino]-4-[(4-methylphenyl)amino]pyrimidine-5-carboxamide]	0.4 nM
COc1cc2c(cc1Nc1ncc(C(N)=O)c(Nc3cccc(Cl)c3)n1)CN(C)CC2 [Example 7-25, 4-[(3-chlorophenyl)amino]-2-[(6-methoxy-2-methyl-1,2,3,4-tetrahydroisoquinolin-7-yl)amino]pyrimidine-5-carboxamide]	1.04 nM
COc1cc2c(cc1Nc1ncc(C(N)=O)c(Nc3ccc(F)c(C#N)c3)n1)CN(C)CC2 [Example 7-26, 4-[(3-cyano-4-fluorophenyl)amino]-2-[(6-methoxy-2-methyl-1,2,3,4-tetrahydroisoquinolin-7-yl)amino]pyrimidine-5-carboxamide]	15 nM
COc1cc2c(cc1Nc1ncc(C(N)=O)c(Nc3cccc4c3CCNC4=O)n1)CN(C)CC2 [Example 7-27, 2-[(6-methoxy-2-methyl-1,2,3,4-tetrahydroisoquinolin-7-yl)amino]-4-[(1-oxo-1,2,3,4-tetrahydroisoquinolin-5-yl)amino]pyrimidine-5-carboxamide]	0.13 nM
COc1cc2c(cc1Nc1ncc(C(N)=O)c(Nc3cccc4c3CCN(CC(C)(C)O)C4)n1)CN(C)CC2 [Example 7-28, 4-{[2-(2-hydroxy-2-methylpropyl)-1,2,3,4-tetrahydroisoquinolin-5-yl]amino}-2-[(6-methoxy-2-methyl-1,2,3,4-tetrahydroisoquinolin-7-yl)amino]pyrimidine-5-carboxamide]	0.51 nM
COc1cc2c(cc1Nc1ncc(C(N)=O)c(Nc3cccc4c3CCN(CC(F)(F)F)C4)n1)CN(C)CC2 [Example 7-29, 2-[(6-methoxy-2-methyl-1,2,3,4-tetrahydroisoquinolin-7-yl)amino]-4-{[2-(2,2,2-trifluoroethyl)-1,2,3,4-tetrahydroisoquinolin-5-yl]amino}pyrimidine-5-carboxamide]	0.35 nM
COc1cc2c(cc1Nc1ncc(C(N)=O)c(Nc3cccc(C#N)c3F)n1)CN(C)CC2 [Example 7-30, 4-[(3-cyano-2-fluorophenyl)amino]-2-[(6-methoxy-2-methyl-1,2,3,4-tetrahydroisoquinolin-7-yl)amino]pyrimidine-5-carboxamide]	2.38 nM
COc1cc2c(cc1Nc1ncc(C(N)=O)c(Nc3cccc4c3CCN(S(C)(=O)=O)C4)n1)CN(C)CC2 [Example 7-31, 2-[(6-methoxy-2-methyl-1,2,3,4-tetrahydroisoquinolin-7-yl)amino]-4-{[2-(methylsulfonyl)-1,2,3,4-tetrahydroisoquinolin-5-yl]amino}pyrimidine-5-carboxamide]	0.15 nM
COc1cc2c(cc1Nc1ncc(C(N)=O)c(Nc3cccc(C4(C#N)CC4)c3)n1)CN(C)CC2 [Example 7-32, 4-{[3-(1-cyanocyclopropyl)phenyl]amino}-2-[(6-methoxy-2-methyl-1,2,3,4-tetrahydroisoquinolin-7-yl)amino]pyrimidine-5-carboxamide]	0.41 nM
COc1cc2c(cc1Nc1ncc(C(N)=O)c(Nc3cccc(CN(C)CC(=O)O)c3)n1)CN(C)CC2 [Example 7-34, N-{[3-({5-carbamoyl-2-[(6-methoxy-2-methyl-1,2,3,4-tetrahydroisoquinolin-7-yl)amino]pyrimidin-4-yl}amino)phenyl]methyl}-N-methylglycine]	2.43 nM
COc1cc2c(cc1Nc1ncc(C(N)=O)c(Nc3cccc4c3CCN(C)C4=O)n1)CN(C)CC2 [Example 7-35, 2-[(6-methoxy-2-methyl-1,2,3,4-tetrahydroisoquinolin-7-yl)amino]-4-[(2-methyl-1-oxo-1,2,3,4-tetrahydroisoquinolin-5-yl)amino]pyrimidine-5-carboxamide]	1.49 nM
CN1CCc2cc(Cl)c(Nc3ncc(C(N)=O)c(Nc4cccc5c4CCNC5=O)n3)cc2C1 [Example 7-36, 2-[(6-chloro-2-methyl-1,2,3,4-tetrahydroisoquinolin-7-yl)amino]-4-[(1-oxo-1,2,3,4-tetrahydroisoquinolin-5-yl)amino]pyrimidine-5-carboxamide]	0.37 nM
CN1CCc2cc(F)c(Nc3ncc(C(N)=O)c(Nc4cccc5c4CCNC5=O)n3)cc2C1 [Example 7-37, 2-[(6-fluoro-2-methyl-1,2,3,4-tetrahydroisoquinolin-7-yl)amino]-4-[(1-oxo-1,2,3,4-tetrahydroisoquinolin-5-yl)amino]pyrimidine-5-carboxamide]	0.21 nM
CNC(=O)c1cccc(Nc2nc(Nc3cc4c(cc3OC)CCN(C)C4)ncc2C(N)=O)c1 [Example 7-38, 2-[(6-methoxy-2-methyl-1,2,3-tetrahydroisoquinolin-7-yl)amino]-4-{[3-(methylcarbamoyl)phenyl]amino} pyrimidine-5-carboxamide]	7.77 nM
CNC(=O)c1cccc(Nc2nc(Nc3cc4c(cc3Cl)CCN(C)C4)ncc2C(N)=O)c1 [Example 7-39, 2-[(6-chloro-2-methyl-1,2,3,4-tetrahydroisoquinolin-7-yl)amino]-4-{[3-(methylcarbamoyl)phenyl]amino} pyrimidine-5-carboxamide]	57.4 nM
CNC(=O)c1cccc(Nc2nc(Nc3cc4c(cc3F)CCN(C)C4)ncc2C(N)=O)c1 [Example 7-41, 2-[(6-fluoro-2-methyl-1,2,3,4-tetrahydroisoquinolin-7-yl)amino]-4-{[3-(methylcarbamoyl)phenyl]amino} pyrimidine-5-carboxamide]	8.85 nM
CN1CCc2cc(F)c(Nc3ncc(C(N)=O)c(Nc4ccccc4CO)n3)cc2C1 [Example 7-42, 2-[(6-fluoro-2-methyl-1,2,3,4-tetrahydroisoquinolin-7-yl)amino]-4-{[2-(hydroxymethyl)phenyl]amino}py-rimidine-5-carboxamide]	0.12 nM
NC(=O)c1cnc(Nc2cnn(CC3CC3)c2)nc1Nc1cccc2c1CCNC2=O [Example 7-43, 2-{[1-(cyclopropylmethyl)-1H-pyrazol-4-yl]amino}-4-[(1-oxo-1,2,3,4-tetrahydroisoquinolin-5-yl)amino]pyrimidine-5-carboxamide]	4.25 nM
Cn1cc(Nc2ncc(C(N)=O)c(Nc3cccc4c3CCNC4=O)n2)cn1 [Example 7-44, 2-[(1-methyl-1H-pyrazol-4-yl)amino]-4-[(1-oxo-1,2,3,4-tetrahydroisoquinolin-5-yl)amino]pyrimidine-5-carboxamide]	4.69 nM
